Patent EP0428000A1, “Fluorogenic substrates for the detection of proteolytic enzyme activity” (priority 1989, dated 1991)
≈ marks a conversion by molar mass, not a printed value. Read-outs that look alike come from different tables or passages of the source. Numbered stars: 1 amine (or outer) side, 2 acyl side, 3 side chain; on linkers, the order of the positions; unused ones are H or OH. Square brackets hold non-standard residues; d marks the D form. Peptide text beside a SMILES is read from it. * marks the point of attachment. X3 = Nc1c(S(=O)(=O)O)cc2c3c(cc(S(=O)(=O)O)cc13)C(=O)N(CCCCCN*)C2=O; Dabcyl = CN(C)c1ccc(N=Nc2ccc(C(=O)*)cc2)cc1; X2 = CN(C)c1ccc(N=Nc2ccc(S(=O)(=O)*)cc2)cc1; X1 = CN(C)c1ccc(/N=N/c2ccc(C(=O)*)cc2)cc1; EDANS = O=S(=O)(O)c1cccc2c(NCCN*)cccc12; Sta = CC(C)C[C@H](N)[C@@H](O)CC(=O)O; NMeGABA = CN(CCCC(=O)[*:2])[*:1]; Isovaleryl = CC(C)CC(=O)*; GABA = NCCCC(=O)O

How the values were obtained:
[1] = pH 4.7, aqueous buffer
[2] = assay buffer used
AMV protease [3] = assay type: biochemical, avian myeloblastosis virus (AMV)
Procedure: (§1) Rate measurements of the change of the fluorescence intensity over time were also performed for reaction mixtures containing a protease enzyme and a fluorogenic substrate of the present invention.

HIV protease [4] = biological target: T1, HIV protease (Human immunodeficiency virus type 1 group M subtype B, UniProt P04585); experiment: Fluorescence enhancement of substrate on hydrolysis by HIV protease; assay type: biochemical, human immunodeficiency virus-1 (HIV-1); parameters: The 11 kd protease enzyme, which is encoded by the human immunodeficiency virus-1 (HIV-1)
Procedure: Analytical HPLC and the isolation of substrate fragments were performed in accordance with methods well known in the art on a Hewlett Packard 1090M system equipped with diode array absorbance and fluorescence detectors, using either a Brownlee 250 x 4.6 mm C8 silica column at pH values below 5, or a Hamilton 50 x 4.1 mm PRP3 polymer column over a pH range of 2-8. A water to acetonitrile gradient was used; either 0.1% trifluoroacetic acid (pH of about 2), 10 mM sodium acetate (pH 4.9), or 10 mM Tris-HCl (pH 8) was included to vary the pH.
The detection system permitted the simultaneous acquisition of the chromatograms for fluorescence and several absorbance wavelengths, as well as the absorption spectra for all peaks. The fluorescence (excitation at 340 nm, emission at 490 nm) and 475 nm absorbance signals, which arise respectively from the EDANS and DABCYL groups, were used to monitor and quantitate the fragments produced by proteolysis of the substrate.
The molar fluorescence enhancement of Substrate I was also estimated by HPLC analysis of HIV protease/Substrate reaction mixtures at times before the hydrolysis reaction was complete. […]

HIV protease [5] = biological target: T1, HIV protease; experiment: HIV protease activity towards fluorogenic substrates; assay type: biochemical, human immunodeficiency virus-1 (HIV-1); parameters: The 11 kd protease enzyme, which is encoded by the human immunodeficiency virus-1 (HIV-1)
Procedure: as §1

physchem = settings: NaOAc buffer, pH 4.7, aqueous buffer
AMV protease [6] = biological target: AMV protease (Avian myeloblastosis virus, UniProt P26315); experiment: Fluorogenic assay for inhibition of AMV protease (Substrate II); assay type: biochemical
Procedure: as §1

HIV protease [7] = biological target: T1, HIV protease; experiment: Fluorogenic assay for inhibition of HIV protease (Substrate I); settings: Cornish-Bowden plot, parallel lines; pH 4.7, 30°C
Procedure: Typically, the assay reaction is performed using buffered solutions, and the reaction is allowed to proceed to virtual completion. The hydrolysis of the fluorogenic substrate by the protease enzyme is monitored by steady state fluorescence using a spectrofluorometer. Fluorescence intensity measurements can be acquired continuously and recorded directly by an interfaced microcomputer. The rate of fluorescent substrate hydrolysis can then be computed from a linear regression analysis. In this assay, the rate of hydrolysis of the fluorogenic substrate is directly proportional to the concentration of the protease. By omitting the protease inhibitor compound from the reaction mixture, the rate of change in fluorescent intensity due to the enzyme's activity can be determined. […]
The assay reaction was carried out in a fluorescence microcell (3 mm), for which a total sample volume of 120 microliters is adequate in most fluorometers. […] Prewarmed substrate solution (20 µL at 30°C) was then added to the microcell, and the fluorescence intensity of the reaction mixture was recorded as a function of time. […] The rate of change of the fluorescence intensity over the subsequent five to eight minutes was determined by linear regression. […] Therefore, the per cent inhibition was calculated as 100 x (1 - (rate in presence of inhibitor)/(rate in absence of inhibitor)).

AMV protease (Avian myeloblastosis virus, UniProt P26315), sequence (P26315 whole entry): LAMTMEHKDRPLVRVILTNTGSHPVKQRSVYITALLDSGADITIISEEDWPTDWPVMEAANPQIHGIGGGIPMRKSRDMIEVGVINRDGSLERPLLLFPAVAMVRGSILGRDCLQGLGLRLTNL

CC[C@H](C)[C@H](NC(=O)[C@@H]1CCCN1C(=O)[C@H](Cc1ccc(O)cc1)NC(=O)[C@H](CC(N)=O)NC(=O)[C@H](CCC(N)=O)NC(=O)[C@H](CO)NC(=O)CCCNC(=O)c1ccc(N=Nc2ccc(N(C)C)cc2)cc1)C(=O)N[C@H](C(=O)N[C@@H](CCC(N)=O)C(=O)NCCCCCN1C(=O)c2cc(S(=O)(=O)O)cc3c(N)c(S(=O)(=O)O)cc(c23)C1=O)C(C)C ({Dabcyl-GABA}-SQNYPIVQ-X3) gave a solubility [1] of no less than 350 µM.

In the case of CC[C@H](C)[C@H](NC(=O)[C@H](CCC(N)=O)NC(=O)[C@@H]1CCCN1C(=O)[C@H](Cc1ccccc1)NC(=O)[C@H](CC(N)=O)NC(=O)[C@H](Cc1ccccc1)NC(=O)[C@H](CO)NC(=O)[C@@H](NC(=O)CCCN(C)S(=O)(=O)c1ccc(N=Nc2ccc(N(C)C)cc2)cc1)C(C)C)C(=O)N[C@H](C(=O)N[C@@H](CC(C)C)C(=O)NCCNc1cccc2c(S(=O)(=O)O)cccc12)[C@@H](C)O [Substrate III] (X2-[NMeGABA]VSFNFPQITL-{EDANS}), the “solubility (in words)” value [2] is reported as “poor solubility”.

In the case of CC(C)[C@H](NC(=O)[C@H](CO)NC(=O)CCCNC(=O)c1ccc(/N=N/c2ccc(N(C)C)cc2)cc1)C(=O)N[C@H](C(=O)N[C@@H](Cc1ccc(O)cc1)C(=O)N1CCC[C@H]1C(=O)N[C@H](C(=O)N[C@H](C(=O)N[C@@H](CCC(N)=O)C(=O)NCCNc1cccc2c(S(=O)(=O)O)cccc12)C(C)C)C(C)C)C(C)C [Substrate II] ({X1-GABA}-SVVYPVVQ-{EDANS}), the “AMV protease activity against Substrate II relative to Substrate I” value (AMV protease [3]) is reported as “at least 50 fold” and the “cleavage by AMV protease (in words)” value (AMV protease [3]) is reported as “efficient substrate”.

For CC[C@H](C)[C@H](NC(=O)[C@H](CCSC)NC(=O)[C@H](Cc1ccc(O)cc1)NC(=O)[C@H](CC(N)=O)NC(=O)[C@H](CCC(N)=O)NC(=O)[C@H](CO)NC(=O)CCCN(C)S(=O)(=O)c1ccc(N=Nc2ccc(N(C)C)cc2)cc1)C(=O)N[C@H](C(=O)N[C@@H](CCC(N)=O)C(=O)NCCNc1cccc2c(S(=O)(=O)O)cccc12)C(C)C [Substrate IV] (X2-[NMeGABA]SQNYMIVQ-{EDANS}), the “solubility (in words)” value [2] was “poor solubility”.

For CC[C@H](C)[C@H](NC(=O)[C@@H]1CCCN1C(=O)[C@H](Cc1ccc(O)cc1)NC(=O)[C@H](CC(N)=O)NC(=O)[C@H](CCC(N)=O)NC(=O)[C@H](CO)NC(=O)CCCNC(=O)c1ccc(/N=N/c2ccc(N(C)C)cc2)cc1)C(=O)N[C@H](C(=O)N[C@@H](CCC(N)=O)C(=O)NCCNc1cccc2c(S(=O)(=O)O)cccc12)C(C)C [Substrate I] ({X1-GABA}-SQNYPIVQ-{EDANS}), the “enhancement of the fluorescence quantum yield of the Pro-Ile-Val-Gln-EDANS fragment over the parent substrate” value (HIV protease [4]; HPLC analysis, pH 4.9, acetonitrile-water) was 33 fold, the “fluorescence enhancement on cleavage” value (HIV protease [4]; under assay conditions) was 40 fold and the “cleavage by HIV protease (in words)” value (HIV protease [5]) was “cleaved quite efficiently”. For the same compound, the “maximum velocity for the enzymatic reaction (Vmax)” value (HIV protease [5]; HIV protease) was 47 nM/min, the Km (HIV protease [5]; HIV protease; read-out: Michaelis-Menten kinetics constant (Km)) was 103 µM and the “rate of cleavage by HIV protease, Substrate I relative to Substrate II” value (HIV protease [5]; each substrate 3.4 µM) was “ten times faster”. The “cleavage by AMV protease (in words)” value (AMV protease [3]) was “not by AMV protease” and the solubility (physchem) was roughly 150 µM (≈ 230 µg/mL).

For CC[C@H](C)[C@H](NC(=O)[C@@H](NC(=O)[C@H](C)NC(=O)[C@@H](NC(=O)CCCNC(=O)c1ccc(/N=N/c2ccc(N(C)C)cc2)cc1)[C@@H](C)O)[C@@H](C)O)C(=O)N[C@@H](CCSC)C(=O)N[C@@H](CCSC)C(=O)N[C@@H](CCC(N)=O)C(=O)N[C@@H](CCCNC(=N)N)C(=O)NCC(=O)N[C@@H](CCC(=O)O)C(=O)NCCNc1cccc2c(S(=O)(=O)O)cccc12 [Substrate VII] ({X1-GABA}-TATIMMQRGE-{EDANS}), the “cleavage by HIV protease (in words)” value (HIV protease [5]) was “more efficient substrate”, the “maximum velocity for the enzymatic reaction (Vmax)” value (HIV protease [5]; HIV protease) was 1.8 nM/min and the Km (HIV protease [5]; read-out: Michaelis-Menten kinetics constant (Km); HIV protease) was 5.9 µM.

With CC[C@H](C)[C@H](NC(=O)[C@@H]1CCCN1C(=O)[C@H](Cc1ccccc1)NC(=O)[C@H](CC(N)=O)NC(=O)[C@H](CC(C)C)NC(=O)[C@@H](NC(=O)[C@H](C)NC(=O)CCCNC(=O)c1ccc(/N=N/c2ccc(N(C)C)cc2)cc1)[C@@H](C)O)C(=O)N[C@@H](CO)C(=O)N[C@@H](CCC(N)=O)C(=O)N[C@@H](CCC(=O)O)C(=O)NCCNc1cccc2c(S(=O)(=O)O)cccc12 [Substrate VI] ({X1-GABA}-ATLNFPISQE-{EDANS}) the “cleavage by HIV protease (in words)” value (HIV protease [5]) was “not as efficiently as was Substrate I”.

For CC[C@H](C)[C@H](NC(=O)CCCNC(=O)c1ccc(/N=N/c2ccc(N(C)C)cc2)cc1)C(=O)N[C@@H](CCCNC(=N)N)C(=O)N[C@@H](CCC(N)=O)C(=O)N[C@@H](C)C(=O)N[C@@H](CC(N)=O)C(=O)N[C@@H](Cc1ccccc1)C(=O)N[C@@H](CC(C)C)C(=O)NCC(=O)N[C@@H](CC(C)C)C(=O)NCCNc1cccc2c(S(=O)(=O)O)cccc12 [Substrate V] ({X1-GABA}-IRQANFLGL-{EDANS}), the “cleavage by HIV protease (in words)” value (HIV protease [5]) was “not as efficiently as was Substrate I”.

With CC(C)CC(=O)N[C@H](C(=O)N[C@H](C(=O)N[C@@H](CC(C)C)[C@@H](O)CC(=O)N[C@@H](C)C(=O)N[C@@H](CC(C)C)[C@@H](O)CC(=O)O)C(C)C)C(C)C [pepstatin] (Isovaleryl-VV[Sta]A[Sta]-OH) the IC50 (AMV protease [6]) was roughly 40 µM and the “mode of inhibition of the protease” value (HIV protease [7]) was “purely competitive”.
